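Each compound was tested at five concentrations against cells in 96-well plates for 48 hours. At the GI50, growth is halved. TGI is the concentration that stops growth completely.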
Legend:
Test in all cases: growth of human tumour cells (NCI), 48 h
SR leukemia = tested on: SR leukemia
NCI/ADR-RES ovarian = tested on: NCI/ADR-RES ovarian
MALME-3M melanoma = tested on: MALME-3M melanoma
786-0 renal = tested on: 786-0 renal
UACC-257 melanoma = tested on: UACC-257 melanoma
OVCAR-8 ovarian = tested on: OVCAR-8 ovarian
HS 578T breast = tested on: HS 578T breast
M14 melanoma = tested on: M14 melanoma
LOX IMVI melanoma = tested on: LOX IMVI melanoma
CAKI-1 renal = tested on: CAKI-1 renal
NCI-H522 lung = tested on: NCI-H522 lung
EKVX NSCLC = tested on: EKVX NSCLC
NCI-H460 lung = tested on: NCI-H460 lung
SF-268 CNS = tested on: SF-268 CNS
SK-MEL-2 melanoma = tested on: SK-MEL-2 melanoma
SK-OV-3 ovarian = tested on: SK-OV-3 ovarian
A498 renal = tested on: A498 renal
MOLT-4 leukemia = tested on: MOLT-4 leukemia
SF-539 CNS = tested on: SF-539 CNS
NCI-H226 lung = tested on: NCI-H226 lung
HOP-62 NSCLC = tested on: HOP-62 NSCLC
MDA-MB-231 breast = tested on: MDA-MB-231 breast
SF-295 CNS = tested on: SF-295 CNS
COLO 205 colon = tested on: COLO 205 colon
IGROV1 ovarian = tested on: IGROV1 ovarian
SK-MEL-5 melanoma = tested on: SK-MEL-5 melanoma
OVCAR-5 ovarian = tested on: OVCAR-5 ovarian
A549 NSCLC = tested on: A549 NSCLC
HCT-116 colon = tested on: HCT-116 colon
UACC-62 melanoma = tested on: UACC-62 melanoma
RPMI-8226 leukemia = tested on: RPMI-8226 leukemia
DU-145 prostate = tested on: DU-145 prostate
UO-31 renal = tested on: UO-31 renal
K-562 leukemia = tested on: K-562 leukemia
U251 CNS = tested on: U251 CNS
TK-10 renal = tested on: TK-10 renal
MCF7 breast = tested on: MCF7 breast
T-47D breast = tested on: T-47D breast
HL-60(TB) leukemia = tested on: HL-60(TB) leukemia
OVCAR-3 ovarian = tested on: OVCAR-3 ovarian
OVCAR-4 ovarian = tested on: OVCAR-4 ovarian
SW-620 colon = tested on: SW-620 colon
SK-MEL-28 melanoma = tested on: SK-MEL-28 melanoma
PC-3 prostate = tested on: PC-3 prostate
SNB-19 CNS = tested on: SNB-19 CNS
CCRF-CEM leukemia = tested on: CCRF-CEM leukemia
HCT-15 colon = tested on: HCT-15 colon
SN12C renal = tested on: SN12C renal
KM12 colon = tested on: KM12 colon
NCI-H23 lung = tested on: NCI-H23 lung
MDA-MB-435 = tested on: MDA-MB-435
RXF 393 renal = tested on: RXF 393 renal

With `Nc1cc(N)c2nc(-c3ccccc3)c(Oc3ccc(Cl)c(Cl)c3)nc2c1` the GI50 (SR leukemia) was 3.36 µM, the TGI (SR leukemia) was 24.2 µM and the GI50 (NCI/ADR-RES ovarian) was 11.8 µM. It also gave a TGI (NCI/ADR-RES ovarian) of 36.1 µM, a GI50 (MALME-3M melanoma) of 15.8 µM and a TGI (MALME-3M melanoma) of 37.4 µM. For the same compound, the GI50 (786-0 renal) was 19.4 µM, the TGI (786-0 renal) was 41.2 µM and the GI50 (UACC-257 melanoma) was 28.5 µM. For the same compound, the TGI (UACC-257 melanoma) was 87.2 µM, the GI50 (OVCAR-8 ovarian) was 27.9 µM and the TGI (OVCAR-8 ovarian) was 88.4 µM. It also gave a GI50 (HS 578T breast) of 10.6 µM, a TGI (HS 578T breast) of 33.7 µM and a GI50 (M14 melanoma) of 14.1 µM. It also gave a TGI (M14 melanoma) of 70.3 µM, a GI50 (LOX IMVI melanoma) of 16.1 µM and a TGI (LOX IMVI melanoma) of 34 µM. For the same compound, the GI50 (CAKI-1 renal) was 14.5 µM, the TGI (CAKI-1 renal) was 35.9 µM and the GI50 (NCI-H522 lung) was 8.34 µM. The TGI (NCI-H522 lung) was 33.7 µM, the GI50 (EKVX NSCLC) was 2.16 µM and the TGI (EKVX NSCLC) was 8.35 µM. It also gave a GI50 (NCI-H460 lung) of 18.4 µM, a TGI (NCI-H460 lung) of 71.4 µM and a GI50 (SF-268 CNS) of 17.1 µM. For the same compound, the TGI (SF-268 CNS) was 52.5 µM, the GI50 (SK-MEL-2 melanoma) was 5.63 µM and the TGI (SK-MEL-2 melanoma) was 23.3 µM. The GI50 (SK-OV-3 ovarian) was 23.9 µM, the TGI (SK-OV-3 ovarian) was 65.9 µM and the GI50 (A498 renal) was 0.442 µM. For the same compound, the TGI (A498 renal) was 12.3 µM, the GI50 (MOLT-4 leukemia) was 6.28 µM and the TGI (MOLT-4 leukemia) was > 100 µM. The GI50 (SF-539 CNS) was 13.5 µM, the TGI (SF-539 CNS) was 29.5 µM and the GI50 (NCI-H226 lung) was 15.1 µM. For the same compound, the TGI (NCI-H226 lung) was 49.5 µM, the GI50 (HOP-62 NSCLC) was 16.9 µM and the TGI (HOP-62 NSCLC) was 37.9 µM. It also gave a GI50 (MDA-MB-231 breast) of 10.3 µM, a TGI (MDA-MB-231 breast) of 26.2 µM and a GI50 (SF-295 CNS) of 13.9 µM. It also gave a TGI (SF-295 CNS) of 31 µM, a GI50 (COLO 205 colon) of 20.6 µM and a TGI (COLO 205 colon) of 67.8 µM. For the same compound, the GI50 (IGROV1 ovarian) was 11.4 µM, the TGI (IGROV1 ovarian) was 32.2 µM and the GI50 (SK-MEL-5 melanoma) was 9.77 µM. It also gave a TGI (SK-MEL-5 melanoma) of 28.7 µM, a GI50 (OVCAR-5 ovarian) of 25.4 µM and a TGI (OVCAR-5 ovarian) of 58.3 µM. For the same compound, the GI50 (A549 NSCLC) was 18.1 µM, the TGI (A549 NSCLC) was 43.5 µM and the GI50 (HCT-116 colon) was 15.7 µM. For the same compound, the TGI (HCT-116 colon) was 48.3 µM, the GI50 (UACC-62 melanoma) was 16.3 µM and the TGI (UACC-62 melanoma) was 48.2 µM. The GI50 (RPMI-8226 leukemia) was 3.51 µM, the TGI (RPMI-8226 leukemia) was > 100 µM and the TGI (DU-145 prostate) was 27.1 µM. For the same compound, the GI50 (UO-31 renal) was 13.3 µM, the TGI (UO-31 renal) was 60.7 µM and the GI50 (K-562 leukemia) was 3.55 µM. The TGI (K-562 leukemia) was > 100 µM, the GI50 (U251 CNS) was 12.1 µM and the TGI (U251 CNS) was 31.9 µM. It also gave a GI50 (TK-10 renal) of 17.6 µM, a TGI (TK-10 renal) of 38 µM and a GI50 (MCF7 breast) of 14.2 µM. For the same compound, the TGI (MCF7 breast) was 70.6 µM, the GI50 (T-47D breast) was 24.5 µM and the TGI (T-47D breast) was 79.1 µM. For the same compound, the GI50 (HL-60(TB) leukemia) was 5.15 µM, the TGI (HL-60(TB) leukemia) was > 100 µM and the GI50 (OVCAR-3 ovarian) was 10.8 µM. The TGI (OVCAR-3 ovarian) was 26.9 µM, the GI50 (OVCAR-4 ovarian) was 33 µM and the TGI (OVCAR-4 ovarian) was > 100 µM. The GI50 (SW-620 colon) was 9.69 µM, the TGI (SW-620 colon) was 30.1 µM and the GI50 (SK-MEL-28 melanoma) was 21.5 µM. For the same compound, the TGI (SK-MEL-28 melanoma) was 64.2 µM, the GI50 (PC-3 prostate) was 15.5 µM and the TGI (PC-3 prostate) was > 100 µM. For the same compound, the GI50 (SNB-19 CNS) was 20.9 µM, the TGI (SNB-19 CNS) was 52.5 µM and the GI50 (CCRF-CEM leukemia) was 2.98 µM. The TGI (CCRF-CEM leukemia) was > 100 µM, the GI50 (HCT-15 colon) was 20 µM and the TGI (HCT-15 colon) was > 100 µM. It also gave a GI50 (SN12C renal) of 14.5 µM, a TGI (SN12C renal) of 31.4 µM and a GI50 (KM12 colon) of 6.38 µM. For the same compound, the TGI (KM12 colon) was 39.8 µM, the GI50 (NCI-H23 lung) was 15.6 µM and the TGI (NCI-H23 lung) was 39.9 µM. It also gave a GI50 (MDA-MB-435) of 5.03 µM, a TGI (MDA-MB-435) of 21.1 µM and a GI50 (RXF 393 renal) of 25.2 µM. It also gave a TGI (RXF 393 renal) of 85.4 µM.

— PubChem BioAssay (NCI)
